Test results: US20230200362A1, “MODEL ORGANISMS HUMANIZED FOR DRUG DISCOVERY AND SCREENING” (NemaMetrix, Inc, priority 2019, published 2023)
Like-named read-outs stand apart in the source and are kept apart here. Blank lines part the entries; values can stand above or below the compound they belong to.

Tests used:
[1] = mouse model; combination with cannabidiol; cited from earlier work
[2] = test system: pharynx::SLC6A4; assay: ScreenChip pharyngeal pumping frequency in SLC6A4 transgenic C. elegans; format: in vivo; conditions: 10 mM serotonin, first-day adults, 20 minutes incubation; FIG. 2B
Text: Provided herein are transgenic nematodes and methods of preparing same for expression, as well as methods for using the same drug discovery for human therapeutic targets, such as that illustrated in FIG. 1 and described in more detail herein, wherein the therapeutic target gene is first optimized for expression in a host nematode and then incorporated into the genome of the nematode. Human Solute Carrier Family 6 Member 4 (SLC6A4) is known to transport serotonin out of the synaptic space, thus terminating the action of serotonin. […] Inhibitors of SLC6A4, selective serotonin reuptake inhibitors (SSRls), are commonly used to treat major depressive disorder and anxiety but are also known to cause many unpleasant side-effects. New SSRls can be discovered using the SLC6A4 overexpressing C. elegans transgenic nematodes described in this illustrative example. As shown below, C. elegans transgenic animals overexpressing human SLC6A4 in the pharyngeal muscle show a decrease in pumping frequency when stimulated to pump by food (a mild stimulus) as compared to the wildtype. These animals can be screened to identify novel SSRls. […] Each EPG recording is two minutes in duration and the experiment is replicated in triplicate on different days. […]

[3] = test system: C. elegans; assay: phenotypic assay (% adult survival); format: in vivo
[4] = target: T1, DAF-12 (Caenorhabditis elegans, UniProt G5EFF5); assay: mtl-1::GFP reporter antagonist response; format: in vivo, C. elegans
T1 construct: endogenous in cells; host or cells: whole C. elegans animals carrying lin-42::GFP or mtl-1::GFP promoter-fusion reporters
T1 sequence (G5EFF5 1-753): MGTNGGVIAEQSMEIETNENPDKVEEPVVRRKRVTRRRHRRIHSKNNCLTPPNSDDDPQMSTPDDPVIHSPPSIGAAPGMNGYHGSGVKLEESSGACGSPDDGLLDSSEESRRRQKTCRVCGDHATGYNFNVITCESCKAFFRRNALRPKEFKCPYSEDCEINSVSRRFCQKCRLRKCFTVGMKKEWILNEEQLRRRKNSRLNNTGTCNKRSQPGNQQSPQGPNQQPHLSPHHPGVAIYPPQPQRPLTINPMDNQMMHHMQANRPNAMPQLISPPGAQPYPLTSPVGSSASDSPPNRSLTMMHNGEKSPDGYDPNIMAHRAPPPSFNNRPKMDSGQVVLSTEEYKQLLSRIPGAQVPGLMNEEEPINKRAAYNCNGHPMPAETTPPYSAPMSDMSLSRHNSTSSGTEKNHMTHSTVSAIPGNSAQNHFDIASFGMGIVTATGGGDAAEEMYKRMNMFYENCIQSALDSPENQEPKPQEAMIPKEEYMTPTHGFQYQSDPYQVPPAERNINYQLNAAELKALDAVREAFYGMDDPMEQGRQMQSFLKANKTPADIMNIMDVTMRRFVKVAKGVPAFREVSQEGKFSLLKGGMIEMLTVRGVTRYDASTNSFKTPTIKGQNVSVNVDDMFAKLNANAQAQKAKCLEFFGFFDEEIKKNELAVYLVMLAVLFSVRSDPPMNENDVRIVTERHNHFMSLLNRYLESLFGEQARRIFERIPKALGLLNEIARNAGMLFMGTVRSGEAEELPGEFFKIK
Text: (§1) Chimeric proteins made with the daf-12 nuclear hormone receptor (NHR) can be used for discovery of agonist and antagonist of human NHRs and detect ligands of human NHRs. In C. elegans, the daf-12 protein activity is a key regulator of development. When daf-12 is activated by dafachronic acid under normal growth conditions, animals will proceed to their reproductive life stage. However, when animals face unfavorable conditions, dafachronic acid is not produced and the dauer program is activated leading animals into a stress-resistant arrested state. The unfavorable conditions can be mimicked by treatment with a DAF-12 antagonist, dafadine. Dafadine treatment overcomes the growth condition signal and animals enter the arrested state. Reporter lines can be used to monitor daf-12 chimera activity. In order to create reporter lines for agonist and antagonist discovery, the transcriptional response to treatment with dafachronic acid or dafadine was determined. Dauer animals were treated with 500 nM dafachronic acid and harvested for RNA preparation after four hours of exposure. RNA samples were processed and sent for RNA sequence analysis. […]
(§2) In this illustrative example, animals in the first larval stage were treated with 100uM dafadine for four hours and harvested for RNA preparation and analysis. Two reporter lines were identified by observation of fluorescence after drug treatment. […]

[5] = test system: STXBP1(R406H); conditions: strain containing the R406H variant exposed to trehalose; cited from earlier work
[6] = target: T1, DAF-12; assay: lin-42::GFP reporter agonist response; format: in vivo, C. elegans
Text: as §1, §2

Compound: NC(=O)N1c2ccccc2C=Cc2ccccc21 [carbamazepine]
interaction with CBD [1]: antagonize

Compound: NCCc1c[nH]c2ccc(O)cc12 [serotonin, 5-Hydroxytryptamine]
rate of pharyngeal pumping in SLC6A4 line [2]: restored

sensitivity of reporter versus phenotypic assay ([4]; mtl-1::GFP reporter vs phenotypic assay): 9 x
EC50 ([4]; titrated with dafadine, FIG. 3C): 5200 nM
Compound: dafadine
EC50 ([3]; dafadine, read-out: EC50, phenotypic assay): 48000 nM

Compound: OC[C@H]1O[C@H](O[C@H]2O[C@H](CO)[C@@H](O)[C@H](O)[C@H]2O)[C@H](O)[C@@H](O)[C@@H]1O [trehalose]
levels of aldicarb-induced paralysis [5]: increase to wild-type levels

Compound: CC[C@@H](C(N)=O)N1CCCC1=O [levetiracetam]
interaction with CBD [1]: acts synergistically

sensitivity of reporter versus phenotypic assay ([6]; lin-42::GFP reporter vs phenotype): at least 40 x
EC50 ([6]; titrated with dafachronic acid, FIG. 3D): ~0.49 nM
Compound: dafachronic acid
EC50 ([3]; dafachronic acid, FIG. 3E, read-out: EC50, animal's phenotypic response): 17 nM
